The record followed here is patent publication US7906709B2, “Methods for breeding glyphosate resistant plants and compositions thereof” (priority 2006, dated 2011).

SMILES strings stand for the structures. Marks after values point to notes of the source that are not given here.

In assay [1] the test system is first generation of rigid ryegrass (Lolium rigidum) collected from California. The assay is described as follows: Glyphosate resistance and sensitivity of the first generation. It counts as in vivo. To be noted: for Survivors: means of two experiments with 90 plants. Here is the method:
(§1) Rigid ryegrass (Lolium rigidum Gaud.) plants are collected from an almond orchard intensively treated with glyphosate since 1984. The collected plants are grown and seed produced in greenhouse. The resistant, intermediate and susceptible biotypes are selected in the first generation using 1.12, 2.24, and 3.36 kg ai ha^−1 rates of glyphosate. Further selection is continued with a high glyphosate rate (8.96 kg ai ha^−1) to select for the resistant and with the low rate (0.28 kg ai ha^−1) to select for the susceptible individuals. The resistant (R) and susceptible (S) biotypes used in this example are generated from the 5th and 4th cycle, respectively.
The collected plants produced seeds in the greenhouse after 8 to 10 weeks. The seeds are designated as the first generation, harvested and replanted for glyphosate resistant evaluation. The percentages of survivors are 89, 59, 45, and 9 percent following glyphosate application at 1×, 2×, 4× and 8×, respectively, is shown in Table 2.

In assay [2] the test system is F2 population from cross between perennial ryegrass and glyphosate resistant rigid ryegrass. Description: Glyphosate sensitivity of F2 hybrid population. The format is in vivo, Lolium perenne x Lolium rigidum. To be noted: 0.5× glyphosate; 3 WAT. Here is the method:
The population of F2 is evaluated for glyphosate sensitivity with 0.5× glyphosate. Severely injured and dead plants are recorded 3 weeks after treatment (WAT) and are designated similar to the sensitive (S) parent. The survivors are re-acclimated for further evaluation at 8× glyphosate. The survivors from 8× glyphosate are designated similar to resistant (R) parent. The rest of the population that responded between S and R are identified as intermediate (I).

Assay [3] concerns R biotype of the California rigid ryegrass. Description: Glyphosate drops on leaves, resistant biotype. It counts as in vivo, Lolium rigidum. To be noted: three 2 µl drops on two leaves, corresponds to 1.12 kg ai ha^-1; one week after treatment; ROUNDUP ULTRA (isopropylamine salt). On the procedure:
as §1
(§2) R and S biotypes of the California rigid ryegrass are grown individually to the fully vegetatively mature stage prior to seedhead formation. In one experiment, two fully mature leaves of each plant (one R and one S biotypes) are treated with three 2 μl drops of glyphosate (glyphosate isopropylamine salt, ROUNDUP ULTRA™, Monsanto Co., St. Louis, Mo.) solution applied to the upper leaf surface. This corresponds to a field rate of 1.12 kg ai ha^−1 glyphosate at a volume of 187 L ha^−1 and pressure of 172.5 kPa. One week after treatment, the S biotype is dead, but no injury is observed on the R biotype.

Assay [4] deals with resistant (R) clone from F2bc1 hybrid. Description: Glyphosate sensitivity of resistant clone from F2bc1. It counts as in vivo, Lolium perenne x Lolium rigidum. On the procedure:
The resistant plant from F2 population is backcrossed to the S parent (perennial ryegrass). Procedures for vernalization and pollination are similar to what is described above. Plants of the F1 hybrid from the backcross (F1bc1) are allowed to intercross to generate F2 (F2bc1). The inheritance of glyphosate resistance traits is evaluated in the F2bc1 population. Glyphosate sensitivity is evaluated at 0.25× and 8× glyphosate. Data collection and genetic evaluation are similar to the procedures as described above.
Backcrossing between the resistant plants from F2 to the sensitive parent of perennial ryegrass is designed to re-capture agronomic characteristics of sensitive parents (perennial ryegrass). The level of glyphosate resistance in the F1bc1 population appears to be similar to the previous results in F1 population. Distribution of glyphosate sensitivity level in the F2bc1 population is illustrated in FIG. 5. A sample of the resistant plants from the F2bc1 is evaluated for the level of sensitivity at 0, 1, 2, 4, 6, 8, 10, 12, and 14× glyphosate and data is illustrated in FIG. 6. No injury is observed up to 6× glyphosate, slight injury is observed at 8× and 10×, and severe injury is observed at 12× glyphosate.

In the next assay the test system is perennial ryegrass. The assay is described as follows: Glyphosate sensitivity of perennial ryegrass parent. The format is in vivo, Lolium perenne. The following applies: sensitive parent. Here is the method: The R biotype of California rigid ryegrass, which survived 8× glyphosate and perennial ryegrass, which died from 0.25× of glyphosate, are grown individually in 950-ml pots with professional planting mix media as discussed above. Plants are maintained in greenhouse with supplemental light, watered daily, and fertilized weekly with NPK water soluble fertilizer (20-20-20). At the mature vegetative stage, perennial ryegrass plants are vernalized in the growth chamber with the temperature 4 ±1 C, 8 h day and 16 h night. After 4 weeks vernalization, the plants are removed and maintained in greenhouse until flowering.
Segregation of glyphosate sensitivity in the F2 population is illustrated in FIG. 4. The percentage of the sensitive plants in F2 (16 percent) is higher than expected due to the glyphosate rate (0.5×) exceeded the sensitivity level of sensitive parents.

The test system of assay [5] is S biotype of the California rigid ryegrass. Description: Glyphosate drops on leaves, susceptible biotype. The format is in vivo, Lolium rigidum. To be noted: three 2 µl drops on two leaves, corresponds to 1.12 kg ai ha^-1; one week after treatment; ROUNDUP ULTRA (isopropylamine salt). On the procedure: as §1, §2
The next assay relates to R line of rigid ryegrass. Description: Dose response study of plant injury, R line. It counts as in vivo, Lolium rigidum. Here is the method: A dose response study is conducted on the R and S lines of rigid ryegrass. The rates of glyphosate applied varied from 0.125×, 0.25×, 0.5×, 1×, 2×, 4×, 6×, 8×, 10×, to 12×. The sprayed solutions and application procedures are similar to those described previously. Plants are evaluated for visual injury at 4 WAT. Data (4 WAT) from two experiments with 8 replications of each treatment are analyzed by non-linear regression and fitted to a log-logistic model:
[formula] where y is predictive of plant injury (% of control), X50=dose required to obtain 50% injury and b is the slope at X50.

Where [6] appears, read: glyphosate 1.12 kg ai ha^-1 (1x).
Where [7] appears, read: glyphosate 2.24 kg ai ha^-1 (2x).
[8] abbreviates: glyphosate 4.48 kg ai ha^-1 (4x).
Where [9] appears, read: glyphosate 8.96 kg ai ha^-1 (8x).

As for `O=C(O)CNCP(=O)(O)O` [glyphosate, N-(phosphonomethyl) glycine], the Dead plants was 11^c percent in assay [1] (setting [6]), 41% in assay [1] (setting [7]), 55% in assay [1] (setting [8]) and 91% in assay [1] (setting [9]). Moreover, the Survivors in assay [1] (setting [6]) is listed as 89%; in assay [1] (setting [7]) it was 59%; in assay [1] (setting [8]), 45%; in assay [1] (setting [9]), 9%; in assay [1] (glyphosate 8.96 kg ai ha^-1 (8x), listed as Glyphosate), 9^b percent. The “percentage of the sensitive plants in F2” value in assay [2] turned out to be 16%. For the same compound, the Plant injury result was “no injury” in assay [3] and “dead” in assay [5]. Further, the injury result is on record as “slight injury” in assay [4] (8× and 10× glyphosate); “severe injury” in assay [4] (12× glyphosate); “No injury” in assay [4] (up to 6× glyphosate). Moreover, the “sensitivity level (glyphosate rate from which plants died)” value with perennial ryegrass was determined as 0.25 ×. For the same compound, the survival result in the assay on R line of rigid ryegrass (R biotype, 8× glyphosate) is given as “survived”. Besides, the “ratio of glyphosate rates between the R and S lines for 50% injury” value in the assay on R line of rigid ryegrass (R line versus S line, 4 WAT) is recorded as over 100 fold. The “glyphosate rate for 50% injury” value in the assay with R line of rigid ryegrass (R line, visual injury 4 WAT, 1× = 1.12 kg ai ha^-1) is 11 ×.
